“Also recorded” adds a separate entry of the source. Read-outs that look alike come from different tables or passages of the source.
Tests used:
Assay type in all cases: cell-based, Trypanosoma cruzi
[1] = molecular target: trypomastigote forms of T. cruzi (Dm28c-Luc); assay: Trypanocidal activity against trypomastigotes (luciferase luminescence, 24 h); settings: for Trypomastigotes SI: SI = CC50 of VERO cells/IC50 of trypomastigotes; for increase of activity compared with 1g (times): trypomastigotes
Protocol: (§1) A drug screen was carried out with Trypanosoma cruzi clone Dm28c genetically modified to express luciferase (Dm28c-luc), kindly provided by Dr. Cristina Henriques. The genetically modified T. cruzi clone Dm28c (Dm28c-Luc) has the firefly luciferase gene integrated into the genome, stably expressing the luminescent enzyme. The bioluminescent signal, proportional to the number of parasites, is produced by adding a D-luciferin substrate. Trypomastigotes were harvested from supernatants of VERO cell cultures, infected at a ratio of 10:1 parasite/host cells, 4 days post-infection (4 dpi). Parasites were used for phenotypic drug screening procedures. Luminescent parasites are a reliable and sensitive tool that allows precise quantification of parasite load. The use of genetically modified organisms was approved under license CQB 105/99.
All triazole analogs were analyzed for their biological activity against trypomastigote and intracellular amastigote forms of T. cruzi (Dm28c-Luc). Trypomastigotes (1.0 × 10^6 parasites/well) were incubated for 24 h at 37 °C with triazole derivatives and Bz at concentrations ranging from 0.04 to 100 µM. Luciferin (300 µg/mL), a luciferase substrate, was added to parasite suspensions to evaluate trypomastigotes viability. The luminescent signal was measured using a Glomax microplate reader. A maximal DMSO concentration (0.1%) was used as the negative control. The inhibitory concentration 50 (IC50) and 90 (IC90) against T. cruzi, which reduces the number of parasites by 50% and 90%, respectively, was calculated using linear regression. The selectivity index (SI), a ratio that measures the window between toxicity in mammalian cells and anti-T. cruzi activity (SI = CC50/IC50), was also determined.

[2] = system: intracellular amastigote forms of T. cruzi (Dm28c-Luc); assay: Activity against intracellular amastigotes in infected VERO cells (72 h); settings: for Intracellular Amastigotes SI: SI = CC50 of VERO cells/IC50 of intracellular amastigotes; for IC50 / IC90: infected VERO cells, 72 h, mean ± SD; for IC50: read-out: Trypanocidal Activity Intracellular Amastigotes IC50; for IC90: read-out: Trypanocidal Activity Intracellular Amastigotes IC90
Protocol: as §1
Activity against intracellular amastigotes was determined in cultures of VERO cells infected by T. cruzi (24 h), as previously described. Briefly, infected cultures were treated for 72 h at 37 °C with different concentrations of triazole derivatives (0.04–100 µM). Then, the culture supernatant was removed, and the viability of the intracellular parasites was evaluated after adding luciferin (300 µg/mL) to the cell monolayer followed by reading using the microplate reader. Anti-T. cruzi activity (IC50 and IC90) and SI values were determined. All experimental assays were performed at least 3 times in duplicate.

[3] = system: T. cruzi Dm28c-Luc in 3D cardiac spheroids; assay: Drug efficacy in T. cruzi-infected 3D cardiac spheroids; settings: 72 h, 15 to 30 times the IC50, 1f maximum 50 µM
Protocol: Primary heart muscle cell cultures were obtained from fetuses of female Swiss Webster mice, as previously described. After heart removal and ventricle fragmentation, tissue fragments were dissociated in a trypsin and collagenase type II (Worthington Biochemical Corporation, Lakewood, USA) dissociation solution. For two-dimensional (2D) cultures, the isolated cardiac cells were seeded at a density of 5 × 10^4 cells/well in gelatin (0.1%)-coated 96-well white culture plates. Three-dimensional (3D) cardiac spheroids were obtained after seeding isolated heart muscle cells at a density of 2.5 × 10^4 cells/well in an agarose (1%)-coated 96-well U-bottom plate, as described in [35]. Heart muscle cells cultures were cultivated in Dulbecco’s modified Eagle medium (DMEM) supplemented with 7% FBS, 2.5 mM CaCl2, 2% embryo extract, and 1 mM L-glutamin and maintained at 37 °C in a humidified atmosphere of 5% CO2. All procedures with animals were approved by the Animal Care and Use Committee at the Oswaldo Cruz Institute (license L-017/2022).
A three-dimensional cardiac model was applied as a cell culture platform to test the efficacy of promising candidates. […] Microtissues were also incubated with DMSO (0.1%) and Bz (100 µM) as negative and positive controls, respectively. After luciferin addition (300 µg/mL), the luminescence was measured, and the data were expressed as arbitrary luminescence units (ALU).

[4] = system: T. cruzi (Dm28c-Luc)-infected VERO cells; assay: Short-term washout assay (3 days treatment, 3 days without compound)
Protocol: A washout assay was performed to evaluate the capacity of the promising candidates to eliminate all parasites. Thus, VERO cells, seeded in 96-well plates at a density of 1.5 × 10^4 cells/well, were infected with T. cruzi (Dm28c-Luc) at a 10:1 parasite–host cell ratio (24 h). Two treatment schedules were performed: 3 days with 30, 50, and 100 µM concentrations and 10 days with 30 and 60 times the IC50 concentrations. After treatment, the cultures were washed with PBS and kept for the same period in RPMI 1640 medium supplemented with 10% FBS without compound pressure. The culture medium was changed every 3 or 4 days during the time course, and the supernatant was harvested for luminescence reading after luciferin (300 µg/mL) addition. At the endpoint, the monolayers were also evaluated for parasite load. The luminescent signal was read using a Glomax reader. Bz (100 µM) and DMSO (≤1%) were used as positive and negative controls, respectively.

[5] = system: intracellular amastigote of T. cruzi Dm28c-Luc; assay: Drug combination assay with Bz (isobologram); settings: for xΣFICI (average of the sums of fractional inhibitory concentration index): combination with Bz, six ratios, additive xΣFICI > 0.5–1; for interaction with Bz: isobologram, intracellular amastigote
Protocol: The combination of promising candidates and Bz was performed using an isobologram method. Initial concentrations were determined by ensuring that IC50 concentrations of monotherapy compounds remained close to half in serial dilutions (1:3–6 concentrations). Solutions at the initial concentration of each compound were prepared and then mixed in proportions of 5:0, 4:1, 3:2, 2:3, 1:4, and 0:5 (v/v) of promising compounds and Bz, respectively. The anti-T. cruzi activity for the serial dilutions (1:3) of the ratios was then analyzed, as previously described. The IC50 values for each combination were used to determine the fractional inhibitory concentration index (FICI); thus, FICI(A) = IC50(A) in combination/IC50(A) alone and FICI(B) = IC50(B) in combination/IC50(B) alone. In addition, the sum of the FICIs for each proportion (∑FICI = FICI(A) + FICI(B)) and the average of the sums for the FICIs (xΣFICI) were calculated. The FICI values were plotted on an isobologram graph. The xΣFICI was applied as a classification criterion for interactions: as synergistic xΣFICI ≤ 0.5, additive xΣFICI > 0.5–1, without interaction xΣFICI > 1–4, and antagonistic for xΣFICI > 4.

[6] = Trypanosoma cruzi, Dm28c-Luc, 24 h, mean ± SD
[7] = Trypanosoma cruzi, Dm28c-Luc, 24 h, mean ± SD, read-out: Trypanocidal Activity Trypomastigotes IC50
[8] = Trypanosoma cruzi, Dm28c-Luc, 24 h, read-out: pIC50 against trypomastigotes (converted)

Compound	Trypomastigotes SI [1]	increase of activity compared with 1g (times) [1]	Intracellular Amastigotes SI [2]	parasite load in 3D cardiac microtissue (luminescence) [3]	xΣFICI (average of the sums of fractional inhibitory concentration index) [5]	interaction with Bz [5]	IC90 [1, 6]	IC50 [1, 7]	IC50 [1, 8]	IC50 ([2]; Trypanosoma cruzi)	IC90 ([2]; Trypanosoma cruzi)	also measured
4-Phenyl-1-(m-tolyl)-1H-1,2,3-triazole [Triazole 1f]	70.5	1.8 times	24.8	significantly inhibited the viability of the parasites; also recorded: significantly reduce the parasite load	0.88	additive effect						pIC50 against trypomastigotes ([1]; Dm28c-Luc, 24 h): 5.91; IC90 ([1]; Dm28c-Luc, 24 h, mean ± SD): 3.68 ± 0.6 µM; IC50 ([1]; Dm28c-Luc, 24 h, mean ± SD, read-out: Trypanocidal Activity Trypomastigotes IC50): 1.23 ± 0.24 µM; IC50 [2]: 3.5 ± 0.39 µM; IC90 [2]: 30.4 ± 0.4 µM; effect on parasite load ([4]; 30 µM): did not significantly reduce the parasite load; fold reduction in parasite load compared to untreated cultures ([4]; 50 µM): ~12 fold; parasite resurgence ([4]; 50 µM): did not prevent parasite resurgence
COc1ccc(-n2cc(-c3ccccc3)nn2)cc1 [Triazole 1d, 1-(4-Methoxyphenyl)-4-phenyl-1H-1,2,3-triazole]	>2380	11 times	>152	significantly inhibited the viability of the parasites; also recorded: significantly reduce the parasite load	0.93	additive effect	2.9 ± 0.16 µM	0.21 ± 0.03 µM	0.214 µM	3.27 ± 0.9 µM	> 100 µM	fold reduction in parasite load compared to untreated cultures ([4]; 100 µM): approximately 10 fold; parasite resurgence ([4]; 100 µM): did not prevent parasite resurgence
c1ccc(-c2cn(-c3ccccc3)nn2)cc1 [Triazole 1g, 1-(4-Diphenyl)-1H-1,2,3-triazole]	>219		>80.6	did not effectively decrease the total number of viable intracellular parasites	0.90	additive effect	> 100 µM	2.28 ± 0.34 µM	2.29 µM	6.2 ± 1.06 µM	> 100 µM	effect on parasite load / infection progression ([4]; 100 µM): did not significantly reduce the parasite load

Reference: article PMC10525445, “Antitrypanosomal Activity of 1,2,3-Triazole-Based Hybrids Evaluated Using In Vitro Preclinical Translational Models” (Biology, 2023)
